The supplement of paper PMC10307832

Legend:
Assay in all cases: relative viability (nuclei count vs DMSO), 5 days (fraction); higher = more cells survive
FH535 + Foretinib = compound: CC1=C(C=CC(=C1)[N+](=O)[O-])NS(=O)(=O)C2=C(C=CC(=C2)Cl)Cl [FH535] + COc1cc2c(Oc3ccc(NC(=O)C4(C(=O)Nc5ccc(F)cc5)CC4)cc3F)ccnc2cc1OCCCN1CCOCC1 [Foretinib] (partner 0.25 µM)
Procedure, shortened: (§1)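 Lung cancer cell lines in 1536-well plates got either a single drug or a fixed anchor-drug dose together with five library-drug doses (not always all listed) in √10 steps, by pin tool, on the day after seeding. Nuclei were counted after 5 days, and relative viability is the treated-to-vehicle ratio of nuclei counts. Values are medians of duplicate plates.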

FH535 + OSI-027 = compound: CC1=C(C=CC(=C1)[N+](=O)[O-])NS(=O)(=O)C2=C(C=CC(=C2)Cl)Cl [FH535] + COc1cccc2cc(-c3nc([C@H]4CC[C@H](C(=O)O)CC4)n4ncnc(N)c34)[nH]c12 [OSI-027] (partner 0.5 µM)
Procedure, shortened: as §1

FH535 + Navitoclax = compound: CC1=C(C=CC(=C1)[N+](=O)[O-])NS(=O)(=O)C2=C(C=CC(=C2)Cl)Cl [FH535] + CC1(C)CCC(c2ccc(Cl)cc2)=C(CN2CCN(c3ccc(C(=O)NS(=O)(=O)c4ccc(N[C@H](CCN5CCOCC5)CSc5ccccc5)c(S(=O)(=O)C(F)(F)F)c4)cc3)CC2)C1 [Navitoclax] (partner 0.5 µM)
Procedure, shortened: as §1

FH535 + Pemetrexed = compound: CC1=C(C=CC(=C1)[N+](=O)[O-])NS(=O)(=O)C2=C(C=CC(=C2)Cl)Cl [FH535] + Nc1nc2[nH]cc(CCc3ccc(C(=O)N[C@@H](CCC(=O)O)C(=O)O)cc3)c2c(=O)[nH]1 [Pemetrexed] (partner 0.2 µM)
Procedure, shortened: as §1

FH535 + Tozasertib = compound: CC1=C(C=CC(=C1)[N+](=O)[O-])NS(=O)(=O)C2=C(C=CC(=C2)Cl)Cl [FH535] + Cc1cc(Nc2cc(N3CCN(C)CC3)nc(Sc3ccc(NC(=O)C4CC4)cc3)n2)n[nH]1 [Tozasertib] (partner 0.1 µM)
Procedure, shortened: as §1

Row | Cell Line | relative viability (FH535 + Foretinib; first compound 0.04 µM) | relative viability (FH535 + Foretinib; first compound 0.1265 µM) | relative viability (FH535 + Foretinib; first compound 0.4 µM) | relative viability (FH535 + Foretinib; first compound 1.265 µM) | relative viability (FH535 + OSI-027; first compound 0.04 µM) | relative viability (FH535 + OSI-027; first compound 0.1265 µM) | relative viability (FH535 + OSI-027; first compound 0.4 µM) | relative viability (FH535 + OSI-027; first compound 1.265 µM) | relative viability (FH535 + Navitoclax; first compound 0.04 µM) | relative viability (FH535 + Navitoclax; first compound 0.1265 µM) | relative viability (FH535 + Navitoclax; first compound 0.4 µM) | relative viability (FH535 + Navitoclax; first compound 1.265 µM) | relative viability (FH535 + Pemetrexed; first compound 0.04 µM) | relative viability (FH535 + Pemetrexed; first compound 0.1265 µM) | relative viability (FH535 + Pemetrexed; first compound 0.4 µM) | relative viability (FH535 + Pemetrexed; first compound 1.265 µM) | relative viability (FH535 + Tozasertib; first compound 0.04 µM) | relative viability (FH535 + Tozasertib; first compound 0.1265 µM) | relative viability (FH535 + Tozasertib; first compound 0.4 µM) | relative viability (FH535 + Tozasertib; first compound 1.265 µM)
1 | 201T | 0.987 | 1.15 | 1.11 | 1.02 | 0.728 | 0.484 | 0.719 | 0.538 | 1.2 | 1.19 | 1.18 | 1.16 | 0.344 | 0.336 | 0.356 | 0.275 | 0.919 | 0.953 | 0.976 | 0.743
2 | A549 | 0.947 | 0.981 | 0.853 | 0.722 | – | – | – | – | 1.28 | 1.16 | 1.25 | 0.936 | – | – | – | – | – | – | – | –
3 | A-427 | 1.06 | 0.965 | 1.04 | 0.977 | 0.368 | 0.496 | 0.378 | 0.43 | 0.968 | 0.928 | 0.839 | 0.865 | 0.979 | 0.973 | 0.953 | 0.785 | 0.175 | 0.205 | 0.243 | 0.159
4 | ABC-1 | 1.04 | 0.849 | 0.969 | 0.907 | 0.446 | 0.418 | 0.452 | 0.414 | – | – | – | – | – | – | – | – | 0.181 | 0.216 | 0.218 | 0.217
5 | BEN | 0.595 | 0.932 | 0.723 | 0.328 | 0.287 | 0.281 | 0.313 | 0.27 | 0.0691 | 0.0603 | 0.0578 | 0.0625 | 0.708 | 0.755 | 0.638 | 0.613 | 0.547 | 0.483 | 0.483 | 0.487
6 | CAL-12T | 1.15 | 1.11 | 1.04 | 0.577 | 0.63 | 0.688 | 0.504 | 0.407 | 1.16 | 1.11 | 1.12 | 0.654 | 1.24 | 1.38 | 1.04 | 0.877 | 0.288 | 0.324 | 0.243 | 0.212
7 | COR-L23 | 0.936 | 0.818 | 0.781 | 0.517 | 0.778 | 0.621 | 0.643 | 0.408 | 0.992 | 1.14 | 0.886 | 0.567 | 0.188 | 0.192 | 0.2 | 0.205 | 0.183 | 0.17 | 0.185 | 0.167
8 | COR-L 105 | 0.936 | 1.25 | 0.794 | 1.02 | 0.691 | 0.701 | 0.613 | 0.608 | 0.725 | 0.864 | 0.702 | 0.637 | 1.16 | 1.08 | 0.943 | 0.968 | 0.359 | 0.339 | 0.337 | 0.304
9 | ChaGo-K-1 | 0.916 | 1.05 | 0.967 | 0.722 | 0.479 | 0.596 | 0.507 | 0.432 | 0.96 | 1.35 | 1.04 | 0.636 | 0.259 | 0.237 | 0.273 | 0.255 | 0.225 | 0.236 | 0.216 | 0.202
10 | EKVX | 0.792 | 0.629 | 0.744 | 0.587 | 0.676 | 0.778 | 0.618 | 0.618 | 0.976 | 0.849 | 0.924 | 0.789 | 0.366 | 0.47 | 0.413 | 0.379 | 0.405 | 0.402 | 0.452 | 0.333
11 | EMC-BAC-2 | 0.978 | 0.97 | 0.997 | 0.809 | 0.339 | 0.402 | 0.395 | 0.364 | 1.17 | 1.19 | 1.2 | 1.02 | 0.408 | 0.422 | 0.419 | 0.423 | 0.289 | 0.312 | 0.306 | 0.254
12 | EPLC-272H | 0.586 | 0.852 | 0.72 | 0.562 | 0.27 | 0.296 | 0.279 | 0.238 | 1.04 | 1.22 | 1.07 | 0.926 | 0.301 | 0.366 | 0.353 | 0.308 | 0.148 | 0.249 | 0.194 | 0.214
13 | H3255 | 0.817 | 0.803 | 0.794 | 0.496 | 0.564 | 0.583 | 0.648 | 0.505 | 0.514 | 0.338 | 0.416 | 0.26 | 0.58 | 0.564 | 0.545 | 0.577 | 0.62 | 0.716 | 0.659 | 0.452
14 | HARA | 0.814 | 0.969 | 0.88 | 0.477 | 0.41 | 0.441 | 0.418 | 0.427 | 1.14 | 1.17 | 1.15 | 0.931 | 0.258 | 0.254 | 0.234 | 0.286 | 0.0901 | 0.133 | 0.128 | 0.0965
15 | HCC-15 | 0.988 | 1.06 | 0.965 | 0.639 | 0.554 | 0.631 | 0.574 | 0.463 | 0.624 | 0.739 | 0.613 | 0.482 | 0.256 | 0.216 | 0.229 | 0.212 | 0.457 | 0.414 | 0.409 | 0.482
16 | HCC-44 | – | – | – | – | 0.494 | 0.458 | 0.407 | 0.321 | 1.06 | 1.04 | 0.911 | 0.74 | 0.647 | 0.687 | 0.604 | 0.628 | 0.916 | 1 | 0.933 | 0.756
17 | HCC-78 | 0.565 | 0.561 | 0.608 | 0.51 | 0.374 | 0.334 | 0.357 | 0.38 | 0.612 | 1.04 | 0.782 | 0.718 | 0.837 | 0.868 | 0.904 | 0.871 | 0.462 | 0.397 | 0.409 | 0.414
18 | HCC-366 | 0.648 | 1.06 | 0.958 | 0.516 | 0.695 | 0.862 | 1.09 | 0.756 | 0.942 | 1.08 | 0.995 | 0.976 | 0.169 | 0.134 | 0.174 | 0.159 | 0.0788 | 0.106 | 0.123 | 0.0854
19 | HCC-827 | 1.03 | 1.07 | 0.975 | 0.587 | 0.798 | 0.821 | 0.754 | 0.664 | 0.994 | 1.08 | 0.973 | 0.732 | 0.237 | 0.246 | 0.216 | 0.263 | 0.425 | 0.452 | 0.433 | 0.347
20 | HOP-62 | 1.06 | 1.04 | 1.03 | 0.933 | 0.77 | 0.779 | 0.678 | 0.713 | 0.997 | 1.08 | 0.916 | 0.779 | 0.322 | 0.267 | 0.345 | 0.35 | 0.407 | 0.362 | 0.348 | 0.412
21 | IA-LM | 1.21 | 1.21 | 1.08 | 0.701 | – | – | – | – | 0.917 | 0.621 | 0.593 | 0.496 | – | – | – | – | – | – | – | –
22 | LC-2-ad | 0.807 | 0.981 | 0.872 | 0.853 | 0.66 | 0.799 | 0.796 | 0.577 | 0.34 | 0.491 | 0.549 | 0.325 | 0.271 | 0.296 | 0.249 | 0.31 | 0.437 | 0.439 | 0.578 | 0.457
23 | LCLC-103H | 0.789 | 0.755 | 0.776 | 0.551 | 0.448 | 0.383 | 0.341 | 0.42 | – | – | – | – | 0.456 | 0.48 | 0.467 | 0.52 | 0.417 | 0.521 | 0.516 | 0.453
24 | NCI-H358 | 0.647 | 0.727 | 0.63 | 0.481 | 0.737 | 0.536 | 0.648 | 0.476 | – | – | – | – | 0.178 | 0.16 | 0.169 | 0.16 | 0.0899 | 0.0929 | 0.104 | 0.0851
25 | NCI-H522 | – | – | – | – | 0.7 | 0.767 | 0.734 | 0.636 | – | – | – | – | 0.847 | 1.01 | 0.994 | 1.08 | 0.529 | 0.502 | 0.601 | 0.534
26 | NCI-H650 | 0.927 | 1.05 | 1.01 | 0.788 | 0.465 | 0.515 | 0.433 | 0.344 | – | – | – | – | 0.926 | 0.956 | 0.915 | 0.68 | 0.603 | 0.783 | 0.766 | 0.51
27 | NCI-H661 | 1.01 | 0.947 | 0.92 | 0.671 | 0.688 | 0.704 | 0.67 | 0.46 | – | – | – | – | 0.903 | 0.96 | 0.839 | 0.66 | 0.365 | 0.339 | 0.346 | 0.332
28 | NCI-H727 | 1.04 | 0.637 | 0.925 | 0.684 | 0.554 | 0.498 | 0.545 | 0.478 | 0.479 | 0.39 | 0.369 | 0.381 | – | – | – | – | 0.465 | 0.545 | 0.582 | 0.504
29 | NCI-H1792 | – | – | – | – | 0.636 | 0.661 | 0.667 | 0.524 | 0.611 | 0.673 | 0.587 | 0.377 | 0.708 | 0.807 | 0.673 | 0.54 | – | – | – | –
30 | SW 900 | 0.745 | 0.94 | 0.764 | 0.541 | 0.531 | 0.582 | 0.505 | 0.333 | – | – | – | – | 0.441 | 0.479 | 0.501 | 0.472 | 0.535 | 0.525 | 0.536 | 0.484
